# What was measured:
# IL-8 [1] = assay: TPA-induced IL-8 on NHEKs; type: cell-based; settings: Homo sapiens; NHEK, TPA 5 ng/mL, 24 hours, ELISA
# Method: (§1) Normal human epidermal keratinocytes (NHEKs) from neonatal donors were obtained from Thermo-Fisher (Cat No. C-001-5C). Cells were cultured in 96-well plates for 24 hours with EpiLife media (Cat No. MEPI500CA) supplemented with keratinocytes growth supplement (Cat No. S0015). On Day 2, media was removed and replaced with supplement-depleted medium for 24 hours. On Day 3, media was removed and cells were pre-treated with test materials (≤1 μM) for 2 hours and later co-treated with test materials and TPA (Sigma Aldrich, Cat No. P8139) at 5 ng/mL and incubated for 24 hours at 37° C. and 5% CO2. After incubation, cell media supernatants were harvested and used to measure pro-inflammatory cytokine levels (IL-8) using ELISA kit (BD Biosciences® #555244). Results were represented as percent of inhibition relative to untreated and TPA-only treated cells. IC50 values were determined by non-linear regression analysis using the four-parameter logistic equation.
# IL-2 = assay: PHA-induced IL-2 on PBMCs; type: cell-based; settings: Homo sapiens, PBMC, PHA-L 20 μg/mL, 24 hours, ELISA
# Method: Cryopreserved human Peripheral Blood Mononuclear cells (PBMCs) from healthy adult donors were obtained from Zen Bio, Inc (Cat No. SER-PBMC-F). Cells were cultured in 96-well plates with lymphocyte media (Cat No. LYMPH-1) and were pre-treated with test materials (≤100 μM) for 2 hours and later co-treated with test materials and PHA-L (Sigma Aldrich, Cat No. 11249738001) at 20 μg/mL and incubated for 24 hours at 37° C. and 5% CO2. After incubation, cell media supernatants were harvested and used to measure cytokine levels (IL-2, IFNγ) using ELISA kits (R&D Systems® #DY202, #DY285). Results were represented as percent of inhibition relative to untreated and PHA-only treated cells. IC50 values were determined by non-linear regression analysis using the four-parameter logistic equation.
# IL-22 = assay: Anti-CD3/CD28+IL-4-induced IL-22 on PBMCs; type: cell-based; settings: Homo sapiens, PBMC, anti-CD3/CD28 beads + 50 ng/mL IL-4, 48 hours, ELISA, read-out: TCR/IL-4-PBMCs IL-22 IC50
# Method: Cryopreserved human Peripheral Blood Mononuclear cells (PBMCs) from healthy adult donors were obtained from Zen Bio, Inc (Cat No. SER-PBMC-F). Cells were cultured in 96-well plates with lymphocyte media (Cat No. LYMPH-1) and were pre-treated with test materials (≤100 μM) for 2 hours and later co-treated with test materials and anti-CD3/CD28 beads (Thermo-Fisher; Cat No. 11131D) and 50 ng/mL recombinant human IL-4 (R&D Systems® #204-IL) for 48 hours at 37° C. and 5% CO2. After incubation, cell media supernatants were harvested and used to measure cytokine levels (IL-22, IL-31) using ELISA kits (R&D Systems® #DY782, #DY2824). Results were represented as percent of inhibition relative to untreated and anti-CD3/CD28+IL-4 only treated cells. IC50 values were determined by non-linear regression analysis using the four-parameter logistic equation.
# P. acnes (ATCC 6919) [2] = assay: Minimal inhibitory concentration (MIC) against P. acnes; type: cell-based, Propionibacterium acnes; settings: Cutibacterium acnes, ATCC6919, 72 h, P. acnes ATCC 6919, 10^6 CFU/mL, read-out: MIC
# Method: To determine minimal inhibitory concentration (MIC), reagents were dissolved in vehicle (5% v/v) and then added to bacteria suspension. P. acnes (ATCC® 6919TM) at 10^6 CFU/mL was incubated with test materials at the concentrations of two-fold serial dilution (0.25-500 μg/mL) and incubated for 72 hours (P. acnes).
# IL-8 [3] = assay: P. acnes-induced IL-8 on human NHEKs; type: cell-based; settings: for IC50: Homo sapiens, NHEK, live P. acnes 10^7 CFU, 24 hours, ELISA, read-out: P. acnes-NHEK IL-8 Protein IC50; for P. acnes-induced IL-8 production: cultured human keratinocytes exposed to P. acnes
# Method: as §1, with “([…])” for “(≤1 μM)”, “live P. acnes (ATCC® 6919TM)” for “TPA (Sigma Aldrich, Cat No. P8139)”, “10^7 CFU” for “5 ng/mL and incubated”, “kits” for “kit”, “P. acnes-only” for “TPA-only”
# P. acnes (ATCC 6919) [4] = assay: Minimal bactericidal concentration (MBC) against P. acnes; type: cell-based, Propionibacterium acnes; settings: Cutibacterium acnes, ATCC6919; P. acnes 10^7 CFU/mL, in PBS, anaerobic conditions
# DEFB4B (hBD2) = assay: NHEK antimicrobial peptide gene expression, hBD2; type: cell-based, human; settings: 10 μM, 24 hours, qPCR, normalized to GAPDH
# Method: Normal human epidermal keratinocytes (NHEKs) from neonatal donors were obtained from Thermo-Fisher (Cat No. C-001-5C). Cells were cultured in 6-well plates for 24 hours before treatments with EpiLife media (Cat No. MEPI500CA) supplemented with keratinocytes growth supplement (Cat No. 50015). On Day 2, media was removed and incubated with test materials (10 μM) for 24 hours at 37° C. and 5% CO2. On Day 3, total RNA was extracted from cells using the RNAqueous® kit (Ambion®; Cat No. 1912) and cDNA was obtained using the High Capacity RNA-to-cDNA kit (Applied Biosystems®; Cat No. 4387406). Quantitative PCR (qPCR) was performed using the TaqMan® Fast Advanced Master Mix (Applied Biosystems®; Cat No. 4444556) and specific TaqMan®-probes human gene primers DEFB4B (hBD2), DEFB103 (hBD3), HCAP18 and GAPDH to calculate the relative gene fold expression change per treatment. Gene expression analysis was performed using the comparative Ct method (also known as the 2-[delta][delta]Ct) approach by comparing the Ct values of the treated samples with the untreated samples and normalized to GAPDH gene expression as endogenous housekeeping gene. Results were represented as fold-expression/untreated cells.
Compound,IC50 (IL-8 [1]) [nM],IC50 (IL-2) [nM],IC50 (IL-22) [nM],MIC (P. acnes (ATCC 6919) [2]) [µg/mL],IC50 (IL-8 [3]) [nM],MBC (P. acnes (ATCC 6919) [4]) [µg/mL],hBD2 gene expression (DEFB4B (hBD2)),P. acnes-induced IL-8 production (IL-8 [3])
"N#Cc1ccc(Oc2ccc3c(c2)COB3O)cc1 [AN2728, reference compound]",20,40,2000,,,,,
C/C(=C\CSCC(NC(=O)NCC(=O)O)C(=O)O)CCCC(C)CCCC(C)CCCC(C)C (stereo not drawn) [A],,,,10,120,,,
"C/C(=C\CSC[C@H](NC(=O)N(C)CC(=O)O)C(=O)O)CCCC(C)CCCC(C)CCCC(C)C (stereo partly drawn) [Compound C, (2R)-2-{[(carboxymethyl)(methyl)carbamoyl]amino}-3-{[(2E)-3,7,11,15-tetramethylhexadec-2-en-1-yl]sulfanyl}propanoic acid]",20,900,> 25000,6,40,22,0.7 Fold-expression/untreated cells,
C/C(=C\CSC[C@H](NC(=O)N1CCC[C@H]1C(=O)O)C(=O)O)CCCC(C)CCCC(C)CCCC(C)C (stereo partly drawn) [Compound E],,4100,> 25000,5,3,7,1.1 Fold-expression/untreated cells,inhibit IL-8 production
C/C(=C\CSCC(NC(=O)N(CC(=O)O)CC(=O)O)C(=O)O)CCCC(C)CCCC(C)CCCC(C)C (stereo not drawn) [Compound G],,3300,> 25000,4,68,1,2.5 Fold-expression/untreated cells,inhibit IL-8 production
C/C(=C\CSC[C@H](NC(=O)COCC(=O)O)C(=O)O)CCCC(C)CCCC(C)CCCC(C)C (stereo partly drawn) [Compound T],30,100,> 25000,22,,,,

# Source: US11802107B2, “Compounds and methods of use” (Signum Biosciences, Inc., priority 2017, dated 2023)
